{"source": "paper PMC6930524", "about": "“A Prospective Repurposing of Dantrolene as a Multitarget Agent for Alzheimer’s Disease” (Molecules, 2019)", "target": "T1, Tau hexapeptide (306)VQIVYK(311) (PHF6) (Homo sapiens, UniProt P10636)", "T1 construct": "Tau hexapeptide (306)VQIVYK(311) (PHF6); purchased JPT Peptide Technologies GmbH, Berlin, Germany; host or cells: synthetic peptide", "test": "Inhibition of PHF6 self-aggregation (ThT fluorescence, TFE cosolvent)", "assay_type": "biochemical", "conditions": "inhibitor 25 μM, PHF6 50 μM", "source_text": "As an additional proof of the potential of DAN in interfering with AD-related processes, we investigated the effects on the in vitro self-aggregation of beta amyloid peptide 1–40 (Aβ40) and Tau hexapeptide (306)VQIVYK(311) (PHF6). Aβ40 is used as an in vitro probe of the fibrillization process leading to amyloid fibrils and ultimately to senile plaques in AD [32], while PHF6 represents the highly proaggregating sequence of the repeated domain R3 of Tau protein, responsible of the formation of neurofibrillary tangles and other tauopathies in NDs. […]\nHighly aggregating hexapeptide Ac-VQIVYK-NH2 (trifluoroacetate salt; JPT Peptide Technologies GmbH, Berlin, Germany) was used as mimic of tau fibrillization in vitro. […] Incubation samples were prepared in black low-binding, flat-bottomed polystyrene 96-well microtiter plates, containing PHF6 (final conc. 50 μM), inhibitor (25 μM) and ThT (10 μM) in a final volume of 180 μL, and immediately read with Tecan Infinite M1000 Pro instrument. Samples were set in triplicate and their fluorescence values subtracted of the blank. […] Fluorescence was measured at 440/485 excitation/emission wavelength within 2 h at 25 °C. Endpoint fluorescence values (arbitrary fluorescence units, AFU) were used for the calculation of residual aggregation as in Equation (1): % residual aggregation = 100 × AFUsample/AFUcontrol(1)"}
{"smiles": "O=C1CN(/N=C/c2ccc(-c3ccc([N+](=O)[O-])cc3)o2)C(O)=N1", "note": "[Dantrolene]", "values": [{"measurement": "inhibition at 25 µM", "result": 32, "unit": "%"}]}
